US20150050220A1, “ANTIMICROBIAL COMPOSITION” (Rohm and Haas Company, priority 2011, published 2015)

Experiments:
Format in all cases: cell-based
[1] = test system: Escherichia coli (10536 strain); experiment: Assessment of antimicrobial efficacy and synergy: 15 seconds contact suspension kill test (Example 1); details: for MBC (minimum biocidal concentration): lowest concentration giving complete kill of E. coli, 15 seconds contact, component alone
[2] = test system: Escherichia coli (E. coli - ATCC #10536); experiment: High resolution MBC microtiter plate synergy assay in phosphate buffer containing 35% dipropylene glycol (Example 2); details: for MBC of component alone (MBCA, MBCB): complete kill in 15 seconds, phosphate buffer with 35% DPG, E. coli 10536; for ΣFBC: component alone
Procedure: The materials were sourced in the same way as for Example 1. Synergy tests were conducted using standard microtiter plate assays with phosphate buffer containing 35% dipropylene glycol (DPG). […] The MBC plate was inoculated one column at a time with the test microorganism. An aliquot of the inoculated well was transferred at 15 seconds to a plate containing a neutralizing agent (D/E Neutralizing Broth), mixed and held for 5 minutes before being transferred to a growth plate containing trypticase soy broth (TSB). The TSB plate was incubated at 37° C. and read for the presence/absence of growth at 24 hours. […] This microorganism is representative of natural contaminants in many consumer and industrial applications.

[3] = test system: Escherichia coli (E. coli - ATCC #10536); experiment: Automated assessment of efficacy in surfactant base, OD readout after 15 seconds exposure (Example 3)
Procedure: In these examples, the efficacy of combinations of thymol and p-menthene alcohols were tested in a surfactant cleansing formulation comprising 2.85% sodium cocoyl glycinate and 1.85% sodium lauroamphoacetate. This corresponds to a 50% in use dilution with water of a typical neat formulation containing 5.7% cocoyl glycinate and 3.7% % sodium lauroamphoacetate during hand washing. Solutions were prepared such that the concentrations of the surfactant components and test actives were 1.1 times the final desired concentration in order to allow for dilution with the bacterial inoculum in the test. The solutions were manually adjusted to pH 10.0 by dropwise addition of sodium hydroxide solution, as measured with a pH meter at ambient temperature. […]
The efficacy of the combinations of the present invention was determined against the same bacterium as in Example 1, Escherichia coli (E. coli—ATCC #10536), at a concentration of approximately 1×10^8 bacteria per mL.
Tests were conducted using standard microtiter plate assays using an automated liquid handling system. […] After 5 minutes in the DIE quench, the optical density (OD) was measured for each plate in turn at two specific wavelengths (450 nm and 590 nm). […] Delta OD values were calculated by subtracting […] at time=16 hours. […]

| Compound | MBC (minimum biocidal concentration) [1] | thymol concentration required for complete bacterial kill in combination ([1]; in combination with […](w/v) of 2-(4-methylcyclohex-3-enyl)-propan-1-ol, 4-fold reduction) | MBC of thymol ([1]; value used to calculate FBC) | MBC of component alone (MBCA, MBCB) [2] | ΣFBC [2] | Ca (end-point of thymol in the mixture) ([2]; with Cb 0.025 of 2-(4-methylcyclohex-3-enyl)-propan-1-ol, ratio A to B 1 to 0.13) | Ca (end-point of thymol in the mixture) ([2]; with Cb 0.05, ratio A to B 1 to 0.25) | Ca (end-point of thymol in the mixture) ([2]; with Cb 0.075, ratio A to B 1 to 0.38) | Ca (end-point of thymol in the mixture) ([2]; with Cb 0.1, ratio A to B 1 to 0.5) | Ca (end-point of thymol in the mixture) ([2]; with Cb 0.2, ratio A to B 1 to 2.5) | MBC (minimum biocidal concentration) ([3]; in 2.85% sodium cocoyl glycinate + 1.85% sodium lauroamphoacetate solution at pH 10) | MBC of p-menthene alcohol ([1]; value used to calculate FBC, for piperitols a lower boundary) | Cb (end-point of second component in the mixture) ([2]; with Ca 0.08 of thymol, ratio A to B 1 to 2.5) | Cb (end-point of second component in the mixture) ([2]; with Ca 0.2 of thymol, ratio A to B 1 to 0.13) | Cb (end-point of second component in the mixture) ([2]; with Ca 0.2 of thymol, ratio A to B 1 to 0.25) | Cb (end-point of second component in the mixture) ([2]; with Ca 0.2 of thymol, ratio A to B 1 to 0.38) | Cb (end-point of second component in the mixture) ([2]; with Ca 0.2 of thymol, ratio A to B 1 to 0.5) | 15 second bactericidal efficacy in combination with thymol (in words) ([3]; in combination with thymol at concentrations lower than their MBC, same surfactant formulation, all 4 or 6 replicates) |
| --- | --- | --- | --- | --- | --- | --- | --- | --- | --- | --- | --- | --- | --- | --- | --- | --- | --- | --- |
| CC1=CCC(C(C)(C)O)CC1 (stereo not drawn) [alpha-terpineol, reference compound] | 0.4 % w/v | – | – | – | – | – | – | – | – | – | – | – | – | – | – | – | – | – |
| Cc1ccc(C(C)C)c(O)c1 [thymol, 2-isopropyl-5-methylphenol, reference compound] | – | 0.0125% | 0.025 % (w/v) | 0.3 weight % | 1.00 | 0.2 weight % | 0.2 weight % | 0.2 weight % | 0.2 weight % | 0.08 weight % | >0.2 % w/v | – | – | – | – | – | – | – |
| CC1=CCC(C(C)CO)CC1 (stereo not drawn) [2-(4-methylcyclohex-3-enyl)-propan-1-ol, 2-(4-methylcyclohex-3-enyl)propan-1-ol] | 0.15 % w/v | – | – | 0.3 weight % | 1.00 | – | – | – | – | – | – | 0.15 % (w/v) | 0.2 weight % | 0.025 weight % | 0.05 weight % | 0.075 weight % | 0.1 weight % | complete kill |
